{"source": "PubChem BioAssay AID1259409", "about": "(Chemical Carcinogenesis Research Information System (CCRIS), 2018)", "origin": "cited, not measured here", "test_system": "rodent chemically induced tumor inhibition, incidence and multiplicity", "assay": "CCRIS tumor inhibitor studies", "conditions": "Route [Inhibitor]: ORAL, Species: RAT, Strain/Sex: SPRAGUE-DAWLEY/FEMALE"}
{"smiles": "COc1ccc(C[C@H]2COC(=O)[C@@H]2Cc2ccc(O[C@@H]3O[C@H](CO)[C@@H](O)[C@H](O)[C@H]3O)c(OC)c2)cc1OC", "values": [{"measurement": "tumour outcome (control, treated, inhibition, significance)", "setting": "Carcinogen: 2-AMINO-1-METHYL-6-PHENYL-1H-IMIDAZO[4,5-B]PYRID INE, 105650-23-5, Dose [Inhibitor]: 0, 0.02% IN THE DIET FOR 8 WK BEGINNING 3 D POST LAST CARCINOGEN DOSE (STUDY DURATION: 48 WK), Target Tissue: Type of Lesion: MAMMARY GLAND: ADENOCARCINOMA, Dose [Carcinogen]: 100 MG/KG BW 1/WK FOR 8 WK BEGINNING AT 6 WK OF AGE, Promoter: NONE USED", "result": "12/20 (60%), 10/19 (53%), 12%, not significant"}, {"measurement": "tumour outcome (control, treated, inhibition, significance)", "setting": "Carcinogen: 2-AMINO-1-METHYL-6-PHENYL-1H-IMIDAZO[4,5-B]PYRID INE, 105650-23-5, Dose [Inhibitor]: 0, 0.02% IN THE DIET FOR 8 WK BEGINNING 3 D POST LAST CARCINOGEN DOSE (STUDY DURATION: 48 WK), Target Tissue: Type of Lesion: MAMMARY GLAND: FIBROADENOMA, Dose [Carcinogen]: 100 MG/KG BW 1/WK FOR 8 WK BEGINNING AT 6 WK OF AGE, Promoter: NONE USED", "result": "2/20 (10%), 2/19 (11%), -10%, not significant"}, {"measurement": "tumour outcome (control, treated, inhibition, significance)", "setting": "Carcinogen: 2-AMINO-1-METHYL-6-PHENYL-1H-IMIDAZO[4,5-B]PYRID INE, 105650-23-5, Dose [Inhibitor]: 0, 0.02% IN THE DIET FOR 8 WK BEGINNING 3 D PRIOR TO FIRST CARCINOGEN DOSE (STUDY DURATION: 48 WK), Target Tissue: Type of Lesion: MAMMARY GLAND: ADENOCARCINOMA, Dose [Carcinogen]: 100 MG/KG BW 1/WK FOR 8 WK CONCURRENT WITH INHIBITOR, Promoter: NONE USED", "result": "12/20 (60%), 11/20 (55%), 8%, not significant"}, {"measurement": "tumour outcome (control, treated, inhibition, significance)", "setting": "Carcinogen: 2-AMINO-1-METHYL-6-PHENYL-1H-IMIDAZO[4,5-B]PYRID INE, 105650-23-5, Dose [Inhibitor]: 0, 0.02% IN THE DIET FOR 8 WK BEGINNING 3 D PRIOR TO FIRST CARCINOGEN DOSE (STUDY DURATION: 48 WK), Target Tissue: Type of Lesion: MAMMARY GLAND: FIBROADENOMA, Dose [Carcinogen]: 100 MG/KG BW 1/WK FOR 8 WK CONCURRENT WITH INHIBITOR, Promoter: NONE USED", "result": "2/20 (10%), 3/20 (15%), -50%, not significant"}, {"measurement": "tumour outcome (control, treated, inhibition, significance)", "setting": "Carcinogen: 2-AMINO-1-METHYL-6-PHENYL-1H-IMIDAZO[4,5-B]PYRID INE, 105650-23-5, Dose [Inhibitor]: 0, 0.2% IN THE DIET FOR 8 WK BEGINNING 3 D POST LAST CARCINOGEN DOSE (STUDY DURATION: 48 WK), Target Tissue: Type of Lesion: MAMMARY GLAND: ADENOCARCINOMA, Dose [Carcinogen]: 100 MG/KG BW 1/WK FOR 8 WK BEGINNING AT 6 WK OF AGE, Promoter: NONE USED", "result": "12/20 (60%), 11/20 (55%), 8%, not significant"}, {"measurement": "tumour outcome (control, treated, inhibition, significance)", "setting": "Carcinogen: 2-AMINO-1-METHYL-6-PHENYL-1H-IMIDAZO[4,5-B]PYRID INE, 105650-23-5, Dose [Inhibitor]: 0, 0.2% IN THE DIET FOR 8 WK BEGINNING 3 D POST LAST CARCINOGEN DOSE (STUDY DURATION: 48 WK), Target Tissue: Type of Lesion: MAMMARY GLAND: ADENOCARCINOMA, Dose [Carcinogen]: 100 MG/KG BW 1/WK FOR 8 WK CONCURRENT WITH INHIBITOR, Promoter: NONE USED", "result": "12/20 (60%), 13/20 (65%), -8%, not significant"}, {"measurement": "tumour outcome (control, treated, inhibition, significance)", "setting": "Carcinogen: 2-AMINO-1-METHYL-6-PHENYL-1H-IMIDAZO[4,5-B]PYRID INE, 105650-23-5, Dose [Inhibitor]: 0, 0.2% IN THE DIET FOR 8 WK BEGINNING 3 D PRIOR TO FIRST CARCINOGEN DOSE (STUDY DURATION: 48 WK), Target Tissue: Type of Lesion: MAMMARY GLAND: FIBROADENOMA, Dose [Carcinogen]: 100 MG/KG BW 1/WK FOR 8 WK CONCURRENT WITH INHIBITOR, Promoter: NONE USED", "result": "2/20 (10%), 4/20 (20%), -100%, not significant"}, {"measurement": "tumour outcome (control, treated, inhibition, significance)", "setting": "Carcinogen: 2-AMINO-1-METHYL-6-PHENYL-1H-IMIDAZO[4,5-B]PYRID INE, Dose [Inhibitor]: 0, 0.2% IN THE DIET FOR 8 WK BEGINNING 3 D POST LAST CARCINOGEN DOSE (STUDY DURATION: 48 WK), Target Tissue: Type of Lesion: MAMMARY GLAND: FIBROADENOMA, Dose [Carcinogen]: 100 MG/KG BW 1/WK FOR 8 WK BEGINNING AT 6 WK OF AGE, Promoter: NONE USED", "result": "2/20 (10%), 2/20 (10%), 0%, not significant"}, {"measurement": "tumour outcome (control, treated, inhibition, significance)", "setting": "Carcinogen: 2-AMINO-1-METHYL-6-PHENYLIMIDAZO[4,5-B]PYRIDINE [105650-23-5], Dose [Inhibitor]: 0.02% IN DIET FOR 8 WK BEGINNING 3 D PRIOR TO FIRST CARCINOGEN DOSE (STUDY DURATION: 48 WK), Target Tissue: Type of Lesion: MAMMARY GLAND: CARCINOMA, Dose [Carcinogen]: 100 MG/KG BW 1X/WK FOR 8 WK (STUDY DURATION: 48 WK), Promoter: NONE", "result": "12/20 (60%), 11/20 (55%), 8%, not significant"}, {"measurement": "tumour outcome (control, treated, inhibition, significance)", "setting": "Carcinogen: 2-AMINO-1-METHYL-6-PHENYLIMIDAZO[4,5-B]PYRIDINE [105650-23-5], Dose [Inhibitor]: 0.02% IN DIET FOR 8 WK BEGINNING 3 D PRIOR TO FIRST CARCINOGEN DOSE (STUDY DURATION: 48 WK), Target Tissue: Type of Lesion: MAMMARY GLAND: FIBROADENOMA, Dose [Carcinogen]: 100 MG/KG BW 1X/WK FOR 8 WK (STUDY DURATION: 48 WK), Promoter: NONE", "result": "2/20 (10%), 3/20 (15%), -50%, not significant"}, {"measurement": "tumour outcome (control, treated, inhibition, significance)", "setting": "Carcinogen: 2-AMINO-1-METHYL-6-PHENYLIMIDAZO[4,5-B]PYRIDINE [105650-23-5], Dose [Inhibitor]: 0.02% IN DIET FOR 40 WK BEGINNING 3 D POST LAST CARCINOGEN DOSE (STUDY DURATION: 48 WK), Target Tissue: Type of Lesion: MAMMARY GLAND: CARCINOMA, Dose [Carcinogen]: 100 MG/KG BW 1X/WK FOR 8 WK (STUDY DURATION: 48 WK), Promoter: NONE", "result": "12/20 (60%), 10/19 (53%), 12%, not significant"}, {"measurement": "tumour outcome (control, treated, inhibition, significance)", "setting": "Carcinogen: 2-AMINO-1-METHYL-6-PHENYLIMIDAZO[4,5-B]PYRIDINE [105650-23-5], Dose [Inhibitor]: 0.02% IN DIET FOR 40 WK BEGINNING 3 D POST LAST CARCINOGEN DOSE (STUDY DURATION: 48 WK), Target Tissue: Type of Lesion: MAMMARY GLAND: FIBROADENOMA, Dose [Carcinogen]: 100 MG/KG BW 1X FOR 8 WK (STUDY DURATION: 48 WK), Promoter: NONE", "result": "2/20 (10%), 2/19 (11%), -10%, not significant"}, {"measurement": "tumour outcome (control, treated, inhibition, significance)", "setting": "Carcinogen: 2-AMINO-1-METHYL-6-PHENYLIMIDAZO[4,5-B]PYRIDINE [105650-23-5], Dose [Inhibitor]: 0.2% IN DIET FOR 8 WK BEGINNING 3 D PRIOR TO FIRST CARCINOGEN DOSE (STUDY DURATION: 48 WK), Target Tissue: Type of Lesion: MAMMARY GLAND: CARCINOMA, Dose [Carcinogen]: 100 MG/KG BW 1X/WK FOR 8 WK (STUDY DURATION: 48 WK), Promoter: NONE", "result": "12/20 (60%), 13/20 (65%), -8%, not significant"}, {"measurement": "tumour outcome (control, treated, inhibition, significance)", "setting": "Carcinogen: 2-AMINO-1-METHYL-6-PHENYLIMIDAZO[4,5-B]PYRIDINE [105650-23-5], Dose [Inhibitor]: 0.2% IN DIET FOR 8 WK BEGINNING 3 D PRIOR TO FIRST CARCINOGEN DOSE (STUDY DURATION: 48 WK), Target Tissue: Type of Lesion: MAMMARY GLAND: FIBROADENOMA, Dose [Carcinogen]: 100 MG/KG BW 1X/WK FOR 8 WK (STUDY DURATION: 48 WK), Promoter: NONE", "result": "2/20 (10%), 4/20 (20%), -100%, not significant"}, {"measurement": "tumour outcome (control, treated, inhibition, significance)", "setting": "Carcinogen: 2-AMINO-1-METHYL-6-PHENYLIMIDAZO[4,5-B]PYRIDINE [105650-23-5], Dose [Inhibitor]: 0.2% IN DIET FOR 40 WK BEGINNING 3 D POST LAST CARCINOGEN DOSE (STUDY DURATION: 48 WK), Target Tissue: Type of Lesion: MAMMARY GLAND: CARCINOMA, Dose [Carcinogen]: 100 MG/KG BW 1X FOR 8 WK (STUDY DURATION: 48 WK), Promoter: NONE", "result": "12/20 (60%), 11/20 (55%), 8%, not significant"}, {"measurement": "tumour outcome (control, treated, inhibition, significance)", "setting": "Carcinogen: 2-AMINO-1-METHYL-6-PHENYLIMIDAZO[4,5-B]PYRIDINE [105650-23-5], Dose [Inhibitor]: 0.2% IN DIET FOR 40 WK BEGINNING 3 D POST LAST CARCINOGEN DOSE (STUDY DURATION: 48 WK), Target Tissue: Type of Lesion: MAMMARY GLAND: FIBROADENOMA, Dose [Carcinogen]: 100 MG/KG BW 1X FOR 8 WK (STUDY DURATION: 48 WK), Promoter: NONE", "result": "2/20 (10%), 2/20 (10%), 0%, not significant"}]}
